The nature of data set [1]: P450 activity determination with blue fluorogenic substrates in 384-well plate. It is filed as biochemical, human. As to the method:
To assess the intrinsic reactivity of P450s in alginate matrices, reactions were performed in wells of a 384-well plate. P450-containing alginate sol was prepared by dispensing 24 μL of P450 baculosomes (1 nmol P450/mL), 36 μL of distilled water, and 60 μL of alginate (2%) in distilled water. Five microliters of this solution were spotted onto 5 μL of the dried PLL-barium spot in a 384-well. Followed by storage of the P450-alginate gel drops at −80° C. for 1 day, 25 μL of blue fluorogenic substrates (BOMCC for CYP3A4 and EOMCC for CYP1A2 and CYP2D6) containing 250 μM NADP^+ and its regeneration system (8 mM glucose-6-phosphate and 1 U/mL glucose-6-phosphate dehydrogenase) in 50 mM potassium phosphate buffer (pH 8) were dispensed onto the thawed P450-alginate gel drop.
As a control, soluble P450 without alginate was also used. The blue fluorescent 7-hydroxycoumarin released by P450-catalyzed oxidation of BOMCC or EOMCC was monitored as a function of time using a BioAssay Reader HTS 7000 Plus (Perkin Elmer, Norwalk, Conn.) at an excitation wavelength of 430 nm and emission wavelength of 497 nm.

In data set [2] the test system is MCF7 human breast cancer cells. Put plainly: cells. The procedure:
(§1) The cytotoxicity of drugs (or drug metabolites) was determined by staining the slide containing the cells with a Live/Dead test kit (Molecular Probes) that produces a green fluorescent response from living cells. At the end of the 3-day culture period post stamping, the three-dimensional cell chip (DataChip) was rinsed three times in PBS for 5 min each. One mL of a dye solution containing 0.5 μM calcein AM was applied to each three-dimensional cell chip using a glass slide with 1 mm thick perimeter gasket acting as a barrier to prevent loss of the dye solution.

In data set [3] the test system is Hep3B human hepatoma cells. Put plainly: cells. Conditions: read-out: Calculated IC50, Alginate DataChip (Hep3B). The procedure:
as §1
(§2) Following incubation for 50 minutes at room temperature, excess dye in the collagen-gel drops was removed by incubating the slides in a petri dish containing 16 mL of PBS for 30 min on a gyratory shaker at 60 rpm. The three-dimensional cell chip was dried thoroughly with nitrogen. The three-dimensional cell chip was scanned with the GenePix® Professional 4200A scanner equipped with blue laser and standard blue filter to determine the green fluorescent intensity and was quantified from the scanning image using GenePix Pro 6.0 (Molecular Devices Co.).
(§3) Percent live cells=(FReaction/FMax)×100
(§4) where FReaction is the green fluorescence intensity of the reaction spot and FMax is the green fluorescence intensity of untreated fully viable cells.
(§5) The alginate-containing three-dimensional cell chip (DataChip) was prepared as follows. A poly-L-lysine (PLL)-barium mixture was prepared by mixing equal volume of sterile PLL (0.01 w/v % from Sigma) and barium chloride solution in distilled water (0.1 M from Sigma).
(§6) A suspension of cells in low-viscosity alginate (from Sigma) was prepared by mixing a Hep3B cell suspension in 5% FBS-supplemented DMEM with alginate solution in distilled water so that the final concentration of cells and alginate are 6×10^6 cells/mL and 1% (w/v), respectively.
(§7) Following spotting and drying of 10 nL PLL-barium mixture on the PS-MA-treated slide, 20-nL of the cell suspension (MCF7 or HepB3; cell density of 6×10^6 cells/mL or 120 cells per spot) in alginate was spotted atop each PLL-barium spot.

The subject of data set [4] is MCF7 cells. Nature of the data set: cells. To be noted: Homo sapiens, MCF7, read-out: Calculated IC50, Alginate DataChip (MCF7). As to the method:
as §1, §2, §3, §4, §5, §6, §7

The nature of data set [5]: Cytotoxicity of compounds and their P450-generated metabolites, Hep3B DataChip stamped with MetaChip. To be noted: human. As to the method:
as §1, §2, §3, §4
(§8) For efficient stamping, MTMOS-coated glass slides were prepared to contain a sol-gel barrier on the periphery of the slides.
(§9) To this end […] of methyltrimethoxysilane (MTMOS) sol was prepared by mixing 2 mL of MTMOS with 1 mL of HCl (10 mM) and sonicated for 10 min. The sol was spotted on the periphery of the MTMOS-coated slide and then the slide was baked in an oven for 30 min at 120° C.
(§10) The MetaChip was stored at −80° C. for 1 day prior to use. Cytotoxicity studies were performed by spotting 20 nL of test compound in distilled water (0-2 mM) onto the MetaChip spots and partially dried.
(§11) This was followed by stamping of the three-dimensional cell chip (DataChip) containing either MCF7 or Hep3B cells onto the MetaChip.
(§12) To this end, a MetaChip consisting of 20×54 alginate spots was prepared; each spot containing a single human P450 isoform (CYP1A2, CYP2D6, or CYP3A4), a mixture of the three isoforms, or no P450 as a test compound only control. Addition of test compounds was carried out by overlay spotting of solutions of these compounds onto the MetaChip, which was then stamped on top of the DataChip.
(§13) Using three DataChips in combination with three MetaChips, IC50 values for 27 compounds and their P450-generated metabolites against human Hep3B cells were determined. […] The three P450 isoforms were used along with an equimolar mixture of the three isoforms and a test compound only control without P450. The test compounds were added to the MetaChip, which was then stamped onto the DataChip and incubated for 6 h. This was followed by removing the DataChip, rinsing with growth medium, incubating in media for 3 days, and then stained for cell viability.

The subject of data set [6] is human Hep3B cells. Put plainly: in vitro. As to the method: as §1, §2, §3, §4, §8, §9, §10, §11, §12, §13
Data set [7] relates to MCF7 cells. Put plainly: cells. Conditions: Homo sapiens.
Data set [8] relates to MCF7 cells. Put plainly: cells. To be noted: Homo sapiens. This is another data set of the same source.
The subject of data set [9] is MCF7 cells. To be noted: read-out: IC50, 2D literature values; 2D cultures in 96-well plates, Refs 1-5; cited from earlier work.
The mark [10] stands for this setting: Soluble enzyme (control, in solution).
The mark [11] stands for this setting: MCF7, read-out: Calculated IC50, Collagen DataChip (MCF7).
[12] abbreviates: MCF7, read-out: IC50 evaluated on the DataChip.
Setting [13] is: IC50, CYP1A2, Hep3B DataChip, MetaChip spots with CYP1A2.
Setting [14] is: IC50, CYP2D6, Hep3B DataChip, MetaChip spots with CYP2D6.
Setting [15] is: IC50, CYP3A4, Hep3B DataChip, MetaChip spots with CYP3A4.
[16] abbreviates: IC50, Mixture, Hep3B DataChip, equimolar mixture of CYP1A2, CYP2D6, CYP3A4.
Where [17] appears, read: IC50, No P450, Hep3B DataChip, test compound only control without P450.
[18] abbreviates: MCF7, read-out: Calculated IC50, 2D 96-well plate.
Where [19] appears, read: MCF7, read-out: IC50 from 2D control in the 96-well plate.
[20] abbreviates: MCF7, read-out: Calculated IC50, 3D 96-well plate.
Setting [21] is: MCF7, read-out: IC50 from 3D control.

Consider five molecules from patent US20090221441A1, “THREE-DIMENSIONAL CELLULAR ARRAY CHIP AND PLATFORM FOR TOXICOLOGY ASSAYS” (Rensselaer Polytechnic Institute, priority 2005, published 2009).

Where two headings read alike, the source gives them in different places. A value given as a limit tells only on which side of the number the result lay.

What is called Km is the substrate concentration at which the rate is half of its maximum. The kcat is the number of substrate molecules converted per active site and unit of time at saturation. The term IC50 denotes the concentration that gives 50% inhibition.

In the case of “CYP3A4: human P450 isoform (baculosomes), soluble or encapsulated in alginate; assayed with BOMCC”, in data set [1] (In Alginate), the Km amounted to 35.4 ± 8.98 µM and the kcat was 4.65 ± 0.87 min⁻¹. Besides, in data set [1] (setting [10]), the Km was 33.7 ± 2.94 µM and the kcat was determined as 7.51 ± 0.48 min⁻¹.

Consider `O=c1[nH]cc(F)c(=O)[nH]1` [5-Fluorouracil, 5-fluorouracil], for which the IC50 in data set [2] (setting [11]) is 82.4 ± 10.3 µM; in data set [2] (setting [12]) it was 51.5 ± 3.3 µM; in data set [3], 66.1 ± 8.8 µM; in data set [4] it was 84.6 ± 18.7 µM; in data set [7] (setting [18]), 68.9 ± 13.5 µM; in data set [7] (setting [19]), 41.7 ± 4.6 µM. Also, the IC50 is 49 ± 3 µM in data set [8] (setting [20]), 34.7 ± 1.2 µM in data set [8] (setting [21]) and 4.1 to 30 µM in data set [9]. Besides, the IC50 at 6 h in [5] (setting [13]) came out at 218 ± 44.3 µM; in data set [5] (setting [14]), 132 ± 20.7 µM; in data set [5] (setting [15]), 349 ± 72.3 µM; in data set [5] (setting [16]) it was 436 ± 77 µM; in [5] (setting [17]), 196 ± 27.2 µM. Also, in data set [6], the “Activation or deactivation of the toxic response by CYP3A4” value is on record as “deactivated”.

`COc1cccc2c1C(=O)c1c(O)c3c(c(O)c1C2=O)C[C@@](O)(C(=O)CO)C[C@@H]3O[C@H]1C[C@H](N)[C@H](O)[C@H](C)O1` [Doxorubicin, doxorubicin]: the IC50 in data set [2] (setting [11]) was 0.43 ± 0.09 µM; in [2] (setting [12]), 0.869 ± 0.057 µM; in data set [3], 0.29 ± 0.09 µM; in data set [4] it was 0.19 ± 0.08 µM; in data set [7] (setting [18]) it was 0.06 ± 0.01 µM; in data set [7] (setting [19]) it was 0.0647 ± 0.0044 µM. Also, the IC50 in data set [8] (setting [20]) was 0.23 ± 0.02 µM; in data set [8] (setting [21]) it was 69.2 ± 3 µM; in data set [9], 0.01 to 55 µM. Besides, the IC50 at 6 h in [5] (setting [13]) is 1.01 ± 0.22 µM; in data set [5] (setting [14]), 4.94 ± 1.36 µM; in data set [5] (setting [15]) it was 19.3 ± 5.45 µM; in data set [5] (setting [16]), 9.71 ± 2.22 µM; in data set [5] (setting [17]), 0.69 ± 0.01 µM; in data set [5] (IC50 values, Hep3B DataChip), under 1 µM. Further, the “Activation or deactivation of the toxic response by CYP2D6” value in data set [6] is reported as “activated”.

B1: CYP2D6: human P450 isoform (baculosomes), soluble or encapsulated in alginate; assayed with EOMCC (protein, UniProt P10635 1-497, looked up)
Cytochrome P450 2D6: MGLEALVPLAVIVAIFLLLVDLMHRRQRWAARYPPGPLPLPGLGNLLHVDFQNTPYCFDQLRRRFGDVFSLQLAWTPVVVLNGLAAVREALVTHGEDTADRPPVPITQILGFGPRSQGVFLARYGPAWREQRRFSVSTLRNLGLGKKSLEQWVTEEAACLCAAFANHSGRPFRPNGLLDKAVSNVIASLTCGRRFEYDDPRFLRLLDLAQEGLKEESGFLREVLNAVPVLLHIPALAGKVLRFQKAFLTQLDELLTEHRMTWDPAQPPRDLTEAFLAEMEKAKGNPESSFNDENLRIVVADLFSAGMVTTSTTLAWGLLLMILHPDVQRRVQQEIDDVIGQVRRPEMGDQAHMPYTTAVIHEVQRFGDIVPLGVTHMTSRDIEVQGFRIPKGTTLITNLSSVLKDEAVWEKPFRFHPEHFLDAQGHFVKPEAFLPFSAGRRACLGEPLARMELFLFFTSLLQHFSFSVPTGQPRPSHHGVFAFLVSPSPYELCAVPR
B1: in data set [1] (In Alginate), the Km turned out to be 6.37 ± 1.25 µM and the kcat is 0.07 ± 0.01 min⁻¹. For the same molecule, in [1] (setting [10]), the Km was determined as 12.5 ± 4.64 µM and the kcat is 0.12 ± 0.03 min⁻¹.

B2: CYP1A2: human P450 isoform (baculosomes), soluble or encapsulated in alginate; assayed with EOMCC (protein, UniProt P05177 2-516, looked up)
Cytochrome P450 1A2: ALSQSVPFSATELLLASAIFCLVFWVLKGLRPRVPKGLKSPPEPWGWPLLGHVLTLGKNPHLALSRMSQRYGDVLQIRIGSTPVLVLSRLDTIRQALVRQGDDFKGRPDLYTSTLITDGQSLTFSTDSGPVWAARRRLAQNALNTFSIASDPASSSSCYLEEHVSKEAKALISRLQELMAGPGHFDPYNQVVVSVANVIGAMCFGQHFPESSDEMLSLVKNTHEFVETASSGNPLDFFPILRYLPNPALQRFKAFNQRFLWFLQKTVQEHYQDFDKNSVRDITGALFKHSKKGPRASGNLIPQEKIVNLVNDIFGAGFDTVTTAISWSLMYLVTKPEIQRKIQKELDTVIGRERRPRLSDRPQLPYLEAFILETFRHSSFLPFTIPHSTTRDTTLNGFYIPKKCCVFVNQWQVNHDPELWEDPSEFRPERFLTADGTAINKPLSEKMMLFGMGKRRCIGEVLAKWEIFLFLAILLQQLEFSVPPGVKVDLTPIYGLTMKHARCEHVQARLRFSIN
On to B2, for which the Km in data set [1] (In Alginate) was found to be 3.61 ± 0.43 µM; in data set [1] (setting [10]) it was 5.78 ± 0.8 µM. Also, the kcat in data set [1] (In Alginate) is 0.51 ± 0.31 min⁻¹; in data set [1] (setting [10]) it was 1.35 ± 0.08 min⁻¹.
